Data published in patent publication US20220296604A1, “INDOLE COMPOUNDS AS MODULATORS OF RAGE ACTIVITY AND USES THEREOF” (NEW YORK UNIVERSITY, priority 2019, published 2022).
pKd: −log10 of the molar value.

target: T1, RAGE tail (Homo sapiens, UniProt Q15109); assay: RAGE tail fluorescence titration (fluorescence quenching), Kd determination; settings: compound titrated into 100 nM solution of RAGE tail, NB = binding not detected
T1 construct: The cytoplasmic domain of RAGE, C terminal RAGE or ctRAGE (RAGE tail) is critical for RAGE-dependent signal transduction
T1 sequence (Q15109 364-404 limits assumed): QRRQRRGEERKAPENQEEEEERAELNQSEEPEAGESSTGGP
Method: Binding affinities of small molecules for either CT-RAGE or FH1 are determined by performing fluorescence titrations to generate binding isotherms and standard SPR experiments. […]
Compound D-IIIa was titrated into 100 nM solution of RAGE tail. Fluorescence quenching was used to determine binding. R^2 quality factor of the fitting was 0.94 (FIG. 1).
Compound D-IIIb was titrated into 100 nM solution of RAGE tail. Fluorescence quenching was used to determine binding. R^2 quality factor of the fitting was 0.97 (FIG. 2).
Compound D-IIIc was titrated into 100 nM solution of RAGE tail. Fluorescence quenching was used to determine binding. R^2 quality factor of the fitting was 0.98 (FIG. 3).
Compound D-IIId was titrated into 100 nM solution of RAGE tail. Fluorescence quenching was used to determine binding. R^2 quality factor of the fitting was 0.99 (FIG. 4).
Compound D-IIIe was titrated into 100 nM solution of RAGE tail. Fluorescence quenching was used to determine binding. R^2 quality factor of the fitting was 0.98 (FIG. 5).
Compound D-IIIi was titrated into 100 nM solution of RAGE tail. Fluorescence quenching was used to determine binding. R^2 quality factor of the fitting was 0.90 (FIG. 6).
Compound D-IIIk was titrated into 100 nM solution of RAGE tail. Fluorescence quenching was used to determine binding. R^2 quality factor of the fitting was 0.89 (FIG. 7).
Compound D-IIIq was titrated into 100 nM solution of RAGE tail. Fluorescence quenching was used to determine binding. R^2 quality factor of the fitting was 0.82 (FIG. 8).
Compound D-IIIv was titrated into 100 nM solution of RAGE tail. Fluorescence quenching was used to determine binding. R^2 quality factor of the fitting was 0.93 (FIG. 9).
Compound D-IIIw was titrated into 100 nM solution of RAGE tail. Fluorescence quenching was used to determine binding. R^2 quality factor of the fitting was 0.94 (FIG. 10).
Compound D-IVa was titrated into 100 nM solution of RAGE tail. Fluorescence quenching was used to determine binding. R^2 quality factor of the fitting was 0.94 (FIG. 11).
Compound D-IVb was titrated into 100 nM solution of RAGE tail. Fluorescence quenching was used to determine binding. R^2 quality factor of the fitting was 0.93 (FIG. 12).
Compound D-IVc was titrated into 100 nM solution of RAGE tail. Fluorescence quenching was used to determine binding. R^2 quality factor of the fitting was 0.92 (FIG. 13).
Compound D-IVd was titrated into 100 nM solution of RAGE tail. Fluorescence quenching was used to determine binding. R^2 quality factor of the fitting was 0.94 (FIG. 14).
Compound D-IVe was titrated into 100 nM solution of RAGE tail. Fluorescence quenching was used to determine binding. R^2 quality factor of the fitting was 0.93 (FIG. 15).
Compound D-IVf was titrated into 100 nM solution of RAGE tail. Fluorescence quenching was used to determine binding. R^2 quality factor of the fitting was 0.95 (FIG. 16).
Compound D-IVg was titrated into 100 nM solution of RAGE tail. Fluorescence quenching was used to determine binding. R^2 quality factor of the fitting was 0.89 (FIG. 17).
Compound D-IVh was titrated into 100 nM solution of RAGE tail. Fluorescence quenching was used to determine binding. R^2 quality factor of the fitting was 0.93 (FIG. 18).

Row | Compound | pKd
1 | CC(=O)NC(CN1CCOCC1)Cn1c(C)c(C)c2ccccc21 [Compound D-IIIc, N-(1-(2,3-dimethyl-1H-indol-1-yl)-3-morphohnopropan-2-yl)acetamide] | 8.05
2 | Cc1c(C)n(CC(O)CN2CCOCC2)c2cc(F)ccc12 [Compound D-IIId] | 7.26
3 | Cc1c(CC(O)CN2CCOCC2)c2ccccc2n1C [Compound D-IIIe, 1-(1,2-dimethyl-1H-indol-3-yl)-3-morpholinopropan-2-ol] | 7.70
4 | CC(=O)NC(CN1CCOCC1)Cn1c(C)c(C)c2cc(F)ccc21 [Compound D-IIIi] | 8.05
5 | Cc1c(C)n(CC(CN2CCOCC2)NC(=O)C(C)C)c2ccccc12 [Compound D-IIIk] | 7.21
6 | Cc1c(CC(O)CN2CCOCC2)c2ccccc2n1C(C)C [Compound D-IIIq] | 7.96
7 | Cc1c(CC(O)CN2CCOCC2)c2ccc(F)cc2n1C [Compound D-IIIv] | 7.85
8 | Cc1c(C)n(CC(CC#N)CN2CCOCC2)c2ccccc12 [Compound D-IIIw] | 8.37
9 | Cc1c(C)n(CC(C#N)CN2CCCC(C(=O)O)C2)c2ccccc12 [Compound D-IVd] | 7.92
10 | CC(=O)NC(CN1CCCC(C(N)=O)C1)Cn1c(C)c(C)c2ccccc21 [Compound D-IVg] | 7.92

Further compounds by rising pKd, results first:

Row | pKd | Compound
11 | 7.09 | Cc1c(C)n(CC(O)CN2CCOCC2)c2ccc(F)cc12 [Compound D-IIIa, 1-(5-fluoro-2,3-dimethyl-1H-indol-1-yl)-3-morpholinopropan-2-ol]
12 | 7.14 | OC(CN1CCCCC1)Cn1c2c(c3ccccc31)CCCC2 [Compound D-IVa]
13 | 7.74 | O=C(O)C1CCCN(CC(O)Cn2c3c(c4ccccc42)CCCC3)C1 [Compound D-IVc]
14 | 7.96 | NC(=O)C1CCCN(CC(O)Cn2c3c(c4ccccc42)CCCC3)C1 [Compound D-IVb]
15 | 8.11 | Cc1c(CC(O)CN2CCCC(C(=O)O)C2)c2ccccc2n1C [Compound D-IVh]
16 | 8.34 | CC(=O)NC(CN1CCCC(C(=O)O)C1)Cn1c(C)c(C)c2ccccc21 [Compound D-IVf]
17 | 8.40 | Cc1c(C)n(CC(C#N)CN2CCOCC2)c2ccccc12 [Compound D-IIIb]
18 | 8.59 | Cc1c(C)n(CC(C#N)CN2CCCC(C(N)=O)C2)c2ccccc12 [Compound D-IVe]
